Key:
Assay type in all cases: cell-based
[1] = target: T1, GPR40 (Homo sapiens, UniProt O14842); assay: SRE-luciferase (Gq) reporter assay, CHO cells
T1 construct: gene FFAR1; plasmid of untold source and species, transiently cotransfected with SRE-Luc or CRE-Luc in CHO-K1 cells

[2] = target: T1, GPR40; assay: SRE-luciferase (Gq) reporter assay, CHO cells; conditions: 24 h, 37 °C
[3] = target: T1, GPR40; assay: SRE-luciferase (Gq) reporter assay, CHO cells, dose-response curve; conditions: agonist

T1 sequence (O14842 whole entry): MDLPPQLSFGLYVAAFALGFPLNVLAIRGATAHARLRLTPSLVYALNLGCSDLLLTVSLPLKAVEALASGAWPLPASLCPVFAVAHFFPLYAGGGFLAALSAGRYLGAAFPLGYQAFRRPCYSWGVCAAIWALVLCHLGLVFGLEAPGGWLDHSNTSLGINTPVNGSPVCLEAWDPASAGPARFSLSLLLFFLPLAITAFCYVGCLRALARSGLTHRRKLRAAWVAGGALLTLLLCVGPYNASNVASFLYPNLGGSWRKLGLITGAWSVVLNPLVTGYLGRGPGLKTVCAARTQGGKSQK

Compound: CC(/C=C/C=C(\C)C(=O)O)=C\C=C\C=C(C)\C=C\C=C(/C)C(=O)O [crocetin]
- EC50 [1]: 2910 ± 320 nM

Compound: CC(/C=C/C=C(\C)C(=O)O[C@@H]1O[C@H](CO[C@@H]2O[C@H](CO)[C@@H](O)[C@H](O)[C@H]2O)[C@@H](O)[C@H](O)[C@H]1O)=C\C=C\C=C(C)\C=C\C=C(/C)C(=O)O[C@@H]1O[C@H](CO[C@@H]2O[C@H](CO)[C@@H](O)[C@H](O)[C@H]2O)[C@@H](O)[C@H](O)[C@H]1O [crocin]
- Emax [2]: 6.00%

Compound: CCCCC/C=C\C/C=C\CCCCCCCC(=O)O [linoleic acid]
- SRE-luciferase (Gq) reporter assay, CHO cells, dose-response curve [3]: increasing crocetin concentrations on dose−response curves of LA

Reference: article PMC10675071, “Identification of Crocetin as a Dual Agonist of GPR40 and GPR120 Responsible for the Antidiabetic Effect of Saffron” (Nutrients, 2023)
